Results from the supplement of paper PMC11061612.

Legend:
[1] = tested on: NCI-H2141 (Small Cell Lung Carcinoma); test: Bliss excess, mean over the matrix (fraction); higher = more synergy
Outline: (§1)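 Bliss excess equals the observed combination effect minus the expected value EA + EB − EA·EB, where EA and EB are the effects of each agent alone. Combination Emax is the second-highest inhibition within the matrix. Inhibition was scaled from CellTiter-Glo 2.0 luminescence, with 0 set by vehicle wells and 1 by blank wells, after 72 hours of two-drug dosing of cells plated in 1536-well plates.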

[2] = tested on: OS-RC-2 (Kidney Carcinoma); test: as above
Outline: as §1

[3] = tested on: PANC-10-05 (Pancreatic Carcinoma); test: as above
Outline: as §1

[4] = tested on: CAL-29 (Bladder Carcinoma); test: combination Emax (second highest fraction inhibited in the dose matrix, 72 h); higher = more inhibition; extreme values may be limits of the assay
Outline: as §1

[5] = tested on: CCK-81 (Colorectal Carcinoma); test: as above
Outline: as §1

[6] = tested on: COLO-320-HSR (Colorectal Carcinoma); test: as above
Outline: as §1

[7] = tested on: COLO-824 (Breast Carcinoma); test: as above
Outline: as §1

[8] = tested on: COR-L311 (Small Cell Lung Carcinoma); test: as above
Outline: as §1

FU97 (Gastric Carcinoma) = test: as above
Outline: as §1

IGR-37 (Melanoma) = test: as above
Outline: as §1

[9] = tested on: KARPAS-422 (B-Cell Non-Hodgkin's Lymphoma); test: as above
Outline: as §1

LN-405 (Glioblastoma) = test: as above
Outline: as §1

[10] = tested on: MDST8 (Colorectal Carcinoma); test: as above
Outline: as §1

[11] = tested on: NCI-H1581 (Non-Small Cell Lung Carcinoma); test: as above
Outline: as §1

[12] = tested on: NCI-H1693 (Lung Adenocarcinoma); test: as above
Outline: as §1

[13] = tested on: NCI-H2066 (Squamous Cell Lung Carcinoma); test: as above
Outline: as §1

PA-1 (Ovarian Carcinoma) = test: as above
Outline: as §1

[14] = tested on: SISO (Cervical Carcinoma); test: as above
Outline: as §1

[15] = tested on: TT (Thyroid Gland Carcinoma); test: as above
Outline: as §1

[16] = tested on: VCaP (Prostate Carcinoma); test: as above
Outline: as §1

SMILES	Bliss excess [1]	Bliss excess [2]	Bliss excess [3]	combination Emax [4]	combination Emax [5]	combination Emax [6]	combination Emax [7]	combination Emax [8]	combination Emax (FU97 (Gastric Carcinoma))	combination Emax (IGR-37 (Melanoma))	combination Emax [9]	combination Emax (LN-405 (Glioblastoma))	combination Emax [10]	combination Emax [11]	combination Emax [12]	combination Emax [13]	combination Emax (PA-1 (Ovarian Carcinoma))	combination Emax [14]	combination Emax [15]	combination Emax [16]
COc1cccc(OCCCN)c1-c1cc(Nc2cnc(C#N)cn2)n[nH]1 [Prexasertib] + C=CCn1c(=O)c2cnc(Nc3ccc(N4CCN(C)CC4)cc3)nc2n1-c1cccc(C(C)(C)O)n1 [AZD1775] (first compound max 1 µM, partner max 1 µM)	-0.0348	-0.0531	-0.0342	0.876	0.945	0.86	0.861	0.861	0.367	0.879	0.985	0.587	0.954	0.75	0.461	0.621	0.851	0.891	0.759	0.774
COc1nnc2ccc(N3CCC(c4ccc(OCCN5CCN(C)C(=O)[C@H]5C)cc4)CC3)nn12 [AZD5153] + Cc1c2c(nn1C)CSCc1cc(n(C)n1)CSc1cc(c3ccccc3c1)OCCCc1c(C(=O)O)n(C)c3c-2c(Cl)ccc13 [AZD5991] (first compound max 1 µM, 7x7, partner max 1 µM)	0.0096	-0.0106	-0.0759	0.355	0.916	0.89	0.724	0.971	0.95	0.949	0.991	0.574	0.355	0.983	0.56	0.35	1	0.508	0.623	0.988
Cc1c2c(nn1C)CSCc1cc(n(C)n1)CSc1cc(c3ccccc3c1)OCCCc1c(C(=O)O)n(C)c3c-2c(Cl)ccc13 [AZD5991] + Cn1cnc2c(F)c(Nc3ccc(Br)cc3Cl)c(C(=O)NOCCO)cc21 [Selumetinib] (first compound max 1 µM, 7x7, partner max 3 µM)	0.0056	-0.0557	-0.0186	0.677	0.947	0.801	0.406	0.247	0.411	0.996	0.998	0.383	0.746	0.991	0.319	0.258	0.865	0.173	0.339	0.911
Cc1c2c(nn1C)CSCc1cc(n(C)n1)CSc1cc(c3ccccc3c1)OCCCc1c(C(=O)O)n(C)c3c-2c(Cl)ccc13 [AZD5991] + C=CCn1c(=O)c2cnc(Nc3ccc(N4CCN(C)CC4)cc3)nc2n1-c1cccc(C(C)(C)O)n1 [AZD1775] (first compound max 1 µM, partner max 1 µM)	-0.0145	-0.0046	-0.0551	0.919	0.928	0.801	0.667	0.812	0.436	0.768	0.965	0.55	0.597	1	0.386	0.256	0.937	0.663	0.428	0.916
Cn1cnc2c(F)c(Nc3ccc(Br)cc3Cl)c(C(=O)NOCCO)cc21 [Selumetinib] + C[C@@H]1COCCN1C2=NC(=NC(=C2)C3(CC3)[S@](=N)(=O)C)C4=C5C=CNC5=NC=C4 [AZD6738] (first compound max 10 µM, 7x7, partner max 10 µM)	-0.0666	-0.0455	-0.07	0.696	0.923	0.371	0.718	0.32	0.333	0.864	0.519	0.405	0.784	0.545	0.364	0.43	0.855	0.43	0.316	0.303
Cc1cc2ncnn2cc1Nc1ncc2c(n1)n(C1CCOCC1)c(=O)n2C [AZD7648] + O=C(c1cc(Cc2n[nH]c(=O)c3ccccc23)ccc1F)N1CCN(C(=O)C2CC2)CC1 [Olaparib] (first compound max 10 µM, 7x7, partner max 10 µM)	-0.0603	-0.0486	-0.0426	0.384	0.162	0.073	0.279	0.456	0.291	0.109	0.55	0.183	0.289	0.168	0.172	0.295	0.374	0.207	0.161	0.141
CCN(CCO)CCCOc1ccc2c(Nc3cc(CC(=O)Nc4cccc(F)c4)[nH]n3)ncnc2c1 [AZD2811] + C[C@@H]1COCCN1C2=NC(=NC(=C2)C3(CC3)[S@](=N)(=O)C)C4=C5C=CNC5=NC=C4 [AZD6738] (first compound max 1 µM, 7x7, partner max 10 µM)	-0.0873	-0.0449	-0.0793	0.67	0.891	0.599	0.802	0.577	0.373	0.711	0.565	0.46	0.724	0.474	0.232	0.339	0.795	0.551	0.475	0.289
